Source: ChEMBL document CHEMBL4393707, “Synthesis and evaluation of new quinazolin-4(3H)-one derivatives as potent antibacterial agents against multidrug resistant Staphylococcus aureus and Mycobacterium tuberculosis” (Eur J Med Chem, 2019)
Values after ≈ are worked out from the molar mass of the structure shown.

Columns and labels:
[1] = system: Escherichia coli; test: Antibacterial activity against Escherichia coli ATCC 25922 incubated for 16 to 18 hrs by broth microdilution assay; format: functional
[2] = system: Staphylococcus aureus; test: Antibacterial activity against Staphylococcus aureus ATCC 29213 incubated for 16 to 18 hrs by broth microdilution assay; format: functional
[3] = system: Pseudomonas aeruginosa; test: Antibacterial activity against Pseudomonas aeruginosa ATCC 27853 incubated for 16 to 18 hrs by broth microdilution assay; format: functional
[4] = system: Acinetobacter baumannii; test: Antibacterial activity against Acinetobacter baumannii BAA1605 incubated for 16 to 18 hrs by broth microdilution assay; format: functional
[5] = system: Klebsiella pneumoniae; test: Antibacterial activity against Klebsiella pneumoniae ATCC BAA-1705 incubated for 16 to 18 hrs by broth microdilution assay; format: functional
[6] = system: Mycobacterium tuberculosis; test: Antitubercular activity against Mycobacterium tuberculosis H37Rv after 7 days by resazurin dye based assay; format: functional; conditions: 168 h
[7] = Cytotoxicity against African green monkey Vero cells assessed as reduction in cell viability after 72 hrs by MTT assay; format: cell-based; conditions: chlorocebus sabaeus
[8] = Selectivity index, ratio of CC50 for African green monkey Vero cells to MIC for Staphylococcus aureus ATCC 29213; format: toxicity; conditions: read-out: Selectivity Index
[9] = Selectivity index, ratio of CC50 for African green monkey Vero cells to MIC for Mycobacterium tuberculosis H37Rv; format: toxicity; conditions: read-out: Selectivity Index

| Structure (SMILES) | MIC [1] [µg/mL] | MIC [2] [µg/mL] | MIC [3] [µg/mL] | MIC [4] [µg/mL] | MIC [5] [µg/mL] | MIC [6] [µg/mL] | CC50 at 72 h [7] [µg/mL] | selectivity ratio [8] | selectivity ratio [9] |
| --- | --- | --- | --- | --- | --- | --- | --- | --- | --- |
| N#Cc1ccc(/C=C/c2nc3ccccc3c(=O)n2CCc2c[nH]c3ccccc23)cc1 | > 64 | > 64 | > 64 | > 64 | > 64 | > 64 |  |  |  |
| Cc1nc2cc(NCc3cn(-c4ccc(F)c(Cl)c4)nn3)ccc2c(=O)n1-c1ccccc1 | > 64 | > 64 | > 64 | > 64 | > 64 | > 64 |  |  |  |
| N#Cc1ccc(/C=C/c2nc3ncccc3c(=O)n2-c2ccc(S)cc2)cc1 | > 64 | 2 (≈ 5.23 µM) | > 64 | > 64 | > 64 | > 64 | > 10 | > 5 |  |
| COc1cc(-n2cc(COc3ccc4nc(C)n(-c5ccccc5)c(=O)c4c3)nn2)cc(OC)c1OC | > 64 | > 64 | > 64 | > 64 | > 64 | > 64 |  |  |  |
| Cc1nc2ccc(-c3ccccc3)cc2c(=O)n1-c1ccccc1 | > 64 | > 64 | > 64 | > 64 | > 64 | > 64 |  |  |  |
| N#Cc1ccc(/C=C/c2nc3cc(-n4cc(-c5ccccc5)nn4)ccc3c(=O)n2-c2ccccc2)cc1 | > 64 | > 64 | > 64 | > 64 | > 64 | > 64 |  |  |  |
| Cc1nc2cc(-n3cc(COc4ccccc4)nn3)ccc2c(=O)n1-c1ccccc1 | > 64 | > 64 | > 64 | > 64 | > 64 | > 64 |  |  |  |
| Cc1nc2cc(-n3cc(COc4ccc5nc(C)n(-c6ccccc6)c(=O)c5c4)nn3)ccc2c(=O)n1-c1ccccc1 | > 64 | > 64 | > 64 | > 64 | > 64 | > 64 |  |  |  |
| C#Cc1cccc(-n2c(/C=C/c3ccc(C#N)cc3)nc3ncccc3c2=O)c1 | > 64 | > 64 | > 64 | > 64 | > 64 | > 64 |  |  |  |
| COC(=O)Cn1c(/C=C/c2ccc(C#N)cc2)nc2ccc(OCc3cn(-c4ccc(F)c(Cl)c4)nn3)cc2c1=O | > 64 | > 64 | > 64 | > 64 | > 64 | > 64 |  |  |  |
| N#Cc1ccc(/C=C/c2nc3ccccc3c(=O)n2Cc2ccc(F)cc2)cc1 | > 64 | > 64 | > 64 | > 64 | > 64 | > 64 |  |  |  |
| Cc1nc2cc(-c3ccccc3)ccc2c(=O)n1-c1cccc(Cl)c1 | > 64 | > 64 | > 64 | > 64 | > 64 | 16 (≈ 46.1 µM) | 12.5 (≈ 36 µM) |  | 0.78 |
